“And” between values parts separate entries of the source, which are not always exact repeats. Equal values may be shown once. “Also recorded” adds a separate entry of the source.
What was measured:
[1] = system: Untransfected HEK 293T cells; experiment: Fluorometric microplate assay with voltage-sensitive dye on untransfected cells; type: cell-based
P2X1 receptors [2] = target: T1, P2X1 receptors (Homo sapiens, UniProt P51575); experiment: Fluorometric microplate assay with voltage-sensitive (membrane potential) dye, FlexStation III; type: cell-based; design: expressed in transfected cells; conditions: for Hill slope (agonist response): agonist concentration-response; for EC50 / pEC50: agonist, peak fluorescence, HEK 293T cells stably expressing P2X1; for Hill slope (inhibition): inhibition of 10 μM ATP responses
T1 sequence (P51575 1-399): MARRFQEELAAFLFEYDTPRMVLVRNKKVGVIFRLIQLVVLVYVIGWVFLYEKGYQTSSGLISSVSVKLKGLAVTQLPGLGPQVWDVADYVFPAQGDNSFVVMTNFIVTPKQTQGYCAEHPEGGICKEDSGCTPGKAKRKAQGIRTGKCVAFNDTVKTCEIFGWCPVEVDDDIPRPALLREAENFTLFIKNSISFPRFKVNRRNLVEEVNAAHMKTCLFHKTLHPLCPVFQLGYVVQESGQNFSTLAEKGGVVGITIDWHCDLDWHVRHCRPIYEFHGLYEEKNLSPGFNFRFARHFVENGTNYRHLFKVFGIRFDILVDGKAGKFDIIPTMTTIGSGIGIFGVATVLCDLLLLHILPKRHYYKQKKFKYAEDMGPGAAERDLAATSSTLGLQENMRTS
Protocol: In brief, fragments were assessed for both agonist and antagonist activities using HEK 293T cells stably expressing doxycycline-inducible P2X1 receptors incubated for 45 min with 50 μl of a fluorescent dye sensitive to membrane potential (dye FLIPR Membrane Potential Assay Kit, Molecular Devices, Wokingham, UK) that was dissolved in buffer (mM: 115 NaCl, 1 KCl, 1 MgCl2, 1 CaCl2, 10 HEPES, 10 D-Glucose, pH 7.4). Dye-loaded cells were transferred to a FlexStation III (Molecular Devices) where compound applications were made without removing the dye. At recording intervals of 1.2 s, baseline fluorescence was recorded for 20 s, followed by a further 60 s after the addition of compounds. Ultimately two applications were made to the same cells. In the first, agonist activity was assessed by adding 50 μl novel fragment (final concentration = 300 μM) to each well. Following the completion of the first application, a second 50 μl application of 30 μM ATP (final concentration = 10 μM) was then added to the same cells. A response upon the first (fragment) application and an absence of a response on the second (ATP) application indicated agonist activity followed by inhibition as a result of receptor desensitisation.
In addition to testing fragments, the reproducibility of each experiment was assessed by including an ATP concentration–response in the first column and a saline control in the last column of the first application. […] The saline control in the first application also meant that an ATP concentration–response could be performed at the end of the second application. This allowed cell viability to be assessed by comparing the ATP concentration–response at the start of the first application with the ATP concentration–response at the end of the second application. […] Measurements from these concentration-dependence experiments were fitted using Eq. (1) below.
Measurements from the FlexStation III were recorded using the integrated software SoftMax Pro v5.4.5 (Molecular Devices). Analysis of concentration-dependence was performed with GraphPad Prism v5.00 (GraphPad Software, San Diego, CA, USA). Peak fluorescence was measured at a range of ligand concentrations and normalised to the maximum peak fluorescence for the same experiment. The mean and standard error of the mean (S.E.M.) for a series of measurements was plotted against agonist or antagonist concentration and iteratively fitted to the following equation:(1) y=Imin+Fmax−Fmin/1+10^((logR50-x)^nH) where Fmin is the baseline fluorescence, Fmax is the peak fluorescence, R50 is the concentration of ligand needed to generate a half-maximal response, x is the ligand concentration and nH is the Hill slope.

P2X1 receptors [3] = target: T1, P2X1 receptors; experiment: Confocal imaging of Alexa-647-ATP cell-surface labelling and competition by pre-treatment
From the text: (§1) Live cells were routinely visualised in phosphate buffered saline (PBS (mM); 155 NaCl, 3.0 Na2HPO4, 1.0 KH2PO4, pH 7.4). Static and time-lapse images were collected using a FV300 laser-scanning confocal microscope with either an Olympus UplanFLN 40 × NA1.30 oil immersion objective and a 60 μm confocal aperture, or a PlanApo 60x NA1.42 oil immersion objective and a 60 μm confocal aperture. Images were exported to ImageJ v1.47 (National Institutes of Health, USA) and the Multi Measure plugin (Optinav Inc, WA, USA) used for analysing regions of interest.

[4] = target: P2X1 with N-terminus substituted by that of P2X2 receptor; design: method as in Rettinger and Schmalzing, 2004; Bhargava et al., 2013; conditions: desensitisation slowed by P2X2 N-terminus substitution; ref Rettinger and Schmalzing, 2004; Bhargava et al., 2013; cited from earlier work
P2X1 receptors [5] = target: T1, P2X1 receptors; experiment: Confocal microscopy kinetic analysis of Alexa-647-ATP binding at the cell surface; design: expressed in transfected cells
Protocol: Kinetic parameters were determined according to the following model of a simple bimolecular binding scheme:(2) L+R⇌koffkonLR where L is the free ligand concentration, R is receptor concentration, LR is the ligand–receptor complex and kon and koff are the microscopic association and dissociation rate constants. In a simple scheme such as this, the equilibrium dissociation constant (Kd) is equal to the ratio of dissociation to association rate constants, such that:(3) Kb=k−1/k+1
According to a one site binding model of the type shown, the observed rates of association and dissociation can be used to estimate k+1 and k−1:(4) 1/τoff=k−1 and(5) 1/τon=k+1[L]+k−1 where τon refers to the rate at which fluorescence increases, τoff refers to the rate that fluorescence decreases and [L] is concentration of the ligand used.
Intracellular and background fluorescence was also routinely monitored as a control.

P2X4 receptors = target: T2, P2X4 receptors (Homo sapiens, UniProt Q99571); experiment: Confocal imaging of Alexa-647-ATP labelling, P2X4-expressing cells; type: binding; conditions: HEK 293T cells expressing P2X4, data not shown
T2 construct: expressed in transfected cells; host or cells: HEK 293T
T2 sequence (Q99571 1-388): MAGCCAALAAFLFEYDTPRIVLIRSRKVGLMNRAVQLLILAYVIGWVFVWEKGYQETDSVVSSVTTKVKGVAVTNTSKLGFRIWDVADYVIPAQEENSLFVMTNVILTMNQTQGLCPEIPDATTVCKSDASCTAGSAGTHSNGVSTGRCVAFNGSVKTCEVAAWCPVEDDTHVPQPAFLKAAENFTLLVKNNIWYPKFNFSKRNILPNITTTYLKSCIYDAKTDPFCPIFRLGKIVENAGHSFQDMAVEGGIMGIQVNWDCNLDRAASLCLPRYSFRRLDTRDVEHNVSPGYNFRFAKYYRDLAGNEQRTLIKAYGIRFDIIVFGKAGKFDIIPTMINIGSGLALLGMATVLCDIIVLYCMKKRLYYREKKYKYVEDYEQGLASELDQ

[6] = system: non-induced HEK 293T cells; experiment: Confocal imaging of Alexa-647-ATP labelling on non-induced cells; type: binding; conditions: 150 nM Alexa-647-ATP
From the text: as §1

P2X7 receptors = target: T3, P2X7 receptors (Homo sapiens, UniProt Q99572); experiment: Confocal imaging of Alexa-647-ATP labelling, P2X7-expressing cells; type: binding; conditions: HEK 293T cells expressing P2X7, data not shown
T3 construct: expressed in transfected cells; host or cells: HEK 293T
T3 sequence (Q99572 1-595): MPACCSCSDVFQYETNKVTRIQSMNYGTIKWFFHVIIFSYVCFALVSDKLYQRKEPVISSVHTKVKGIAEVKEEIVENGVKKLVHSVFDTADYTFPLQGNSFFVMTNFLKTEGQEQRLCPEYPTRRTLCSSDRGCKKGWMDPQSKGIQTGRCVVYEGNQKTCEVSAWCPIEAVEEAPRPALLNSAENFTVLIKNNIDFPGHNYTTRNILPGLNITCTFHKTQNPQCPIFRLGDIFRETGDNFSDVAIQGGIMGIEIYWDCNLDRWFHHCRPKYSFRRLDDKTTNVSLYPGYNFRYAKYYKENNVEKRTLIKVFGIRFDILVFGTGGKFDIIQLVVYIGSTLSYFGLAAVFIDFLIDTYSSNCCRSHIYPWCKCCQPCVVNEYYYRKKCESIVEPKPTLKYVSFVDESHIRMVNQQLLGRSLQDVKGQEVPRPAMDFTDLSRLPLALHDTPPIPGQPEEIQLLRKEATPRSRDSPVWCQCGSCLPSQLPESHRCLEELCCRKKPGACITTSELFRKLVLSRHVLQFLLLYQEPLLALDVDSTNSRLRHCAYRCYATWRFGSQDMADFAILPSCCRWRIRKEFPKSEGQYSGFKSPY

[7] = pre-treated with 5 mM, 150 nM Alexa-647-ATP

| Compound | fluorescent response to agonist [1] | Hill slope (agonist response) (P2X1 receptors [2]) | EC50 (P2X1 receptors [2]) | pEC50 (P2X1 receptors [2]) | Hill slope (inhibition) (P2X1 receptors [2]) | Alexa-647-ATP cell-surface fluorescence after pre-treatment (P2X1 receptors [3]; [7]) | EC50 [4] | also measured |
| --- | --- | --- | --- | --- | --- | --- | --- | --- |
| Nc1ncnc2c1ncn2[C@@H]1O[C@H](COP(=O)(O)OP(=O)([O-])OP(=O)([O-])O)[C@@H](O)[C@H]1O.[Mg+2] [MgATP] | did not respond | 1.0 ± 0.1 | 14.1 µM | 4.85 ± 0.07 | – | – | – | – |
| O=C(Nc1cc(C(=O)Nc2ccc(S(=O)(=O)O)cc2S(=O)(=O)O)cc(C(=O)Nc2ccc(S(=O)(=O)O)cc2S(=O)(=O)O)c1)Nc1cc(C(=O)Nc2ccc(S(=O)(=O)O)cc2S(=O)(=O)O)cc(C(=O)Nc2ccc(S(=O)(=O)O)cc2S(=O)(=O)O)c1 [NF449] | – | – | – | – | 1.1 ± 0.2 | – | – | Alexa-647-ATP cell-surface fluorescence after pre-treatment (P2X1 receptors [3]; pre-treated with 250 μM, 150 nM Alexa-647-ATP): not present; also recorded: not seen |
| Nc1ncnc2c1ncn2[C@@H]1O[C@H](COP(=O)(O)OP(=O)(O)OP(=O)(O)O)[C@@H](O)[C@H]1O [ATP] | – | – | – | – | – | not seen | low nanomolar | – |
| Alexa-647-ATP | – | 1.1 ± 0.1 | 5.75 µM | 5.24 ± 0.04 | – | – | low nanomolar | cell-surface fluorescence after addition of ligand (P2X1 receptors [3]; 150 nM Alexa-647-ATP, P2X1-expressing HEK 293T cells): rapid increase in cell-surface fluorescence; cell permeability (fluorescence inside labelled cells) (P2X1 receptors [3]; live HEK 293T cells, confocal): not cell-permeable; kobs (P2X1 receptors [5]; 0.5 μM Alexa-647-ATP): 0.79 ± 0.08 min⁻¹; kobs (P2X1 receptors [5]; 5 μM Alexa-647-ATP): 5.86 ± 0.58 min⁻¹; koff, direct measurement of dissociation (P2X1 receptors [5]; after rapid washing with PBS, mono-exponential fits): 0.00667 s⁻¹ and 0.00678 s⁻¹; association rate (kon) (P2X1 receptors [5]; slope of 1/τon (kobs) vs concentration): 1.142e+06 M⁻¹ s⁻¹; dissociation rate (koff) (P2X1 receptors [5]; y-axis intercept of 1/τon (kobs) vs concentration): 0.136 s⁻¹; cell-surface fluorescence (P2X4 receptors): could not detect any measureable fluorescence; cell-surface fluorescence [6]: not present; cell-surface fluorescence (P2X7 receptors): could not detect any measureable fluorescence |
| Cc1ccc(C(=O)Nc2ccc(S(=O)(=O)O)c3cc(S(=O)(=O)O)cc(S(=O)(=O)O)c23)cc1NC(=O)c1cccc(NC(=O)Nc2cccc(C(=O)Nc3cc(C(=O)Nc4ccc(S(=O)(=O)O)c5cc(S(=O)(=O)O)cc(S(=O)(=O)O)c45)ccc3C)c2)c1 [suramin] | – | – | – | – | 1.5 ± 0.7 | – | – | Alexa-647-ATP cell-surface fluorescence after pre-treatment (P2X1 receptors [3]; pre-treatment, concentration not printed, 150 nM Alexa-647-ATP): still seen; also recorded: no competition was seen; Alexa-647-ATP cell-surface fluorescence after pre-treatment (P2X1 receptors [3]; pre-treatment, concentration not printed, 150 nM Alexa-647-ATP, listed as Suramin): did not alter cell-surface fluorescence |
| Nc1ncnc2c1ncn2[C@@H]1O[C@H](COP(=O)(O)OP(=O)([O-])OP(=O)([O-])O)[C@@H](O)[C@H]1O.[Na+].[Na+] [NaATP] | did not respond | 0.9 ± 0.2 | 5.49 µM | 5.26 ± 0.09 | – | not present | – | – |

From publication PMC4728187, “A fluorescent approach for identifying P2X1 ligands” (Neuropharmacology, 2015)
